Experimental data reported in US20240400544A1, “N-(HYDROXYALKYL (HETERO)ARYL) TETRAHYDROFURAN CARBOXAMIDE ANALOGS AS MODULATORS OF SODIUM CHANNELS” (VERTEX PHARMACEUTICALS INCORPORATED, priority 2021, published 2024).
pIC50: −log10 of the molar value.

Target: human NaV 1.8 (Homo sapiens, UniProt Q9Y5Y9)
Experiment: E-VIPR Assay Detecting and Measuring NaV Inhibition Properties
Format: cell-based
Details: HEK cells expressing a truncated form of human NaV 1.8 with full channel activity; electrical stimulation, membrane potential FRET dyes; read-out: measured IC50 value in the E-VIPR Assay
Description: E-VIPR Assay Detecting and Measuring NaV Inhibition Properties
Sodium ion channels are voltage-dependent proteins that can be activated by inducing membrane voltage changes by applying electric fields. The electrical stimulation instrument and methods of use, referred to as E-VIPR, are described in International Publication No. WO 2002/008748 A3 and C.-J. Huang et al. Characterization of voltage-gated sodium channel blockers by electrical stimulation and fluorescence detection of membrane potential, 24 Nature Biotech. 439-46 (2006), both of which are incorporated by reference in their entirety. The instrument comprises a microtiter plate handler, an optical system for exciting the coumarin dye while simultaneously recording the coumarin and oxonol emissions, a waveform generator, a current- or voltage-controlled amplifier, and parallel electrode pairs that are inserted into assay plate wells. Under integrated computer control, this instrument passes user-programmed electrical stimulus protocols to cells within the wells of the microtiter plate.
16-20 hours prior to running the assay on E-VIPR, HEK cells expressing a truncated form of human NaV 1.8 with full channel activity were seeded into microtiter 384-well plates, pre-coated with matrigel, at a density of 25,000 cells per well. 2.5-5% KIR2.1 Bacmam virus was added to the final cell suspension before seeding into cell plates. HEK cells were grown in Dulbecco's Modified Eagle's Medium (DMEM) supplemented with 10% FBS (Fetal Bovine Serum, qualified; Sigma #F4135), 1% NEAA (Non-Essential Amino Acids, Gibco #11140), 1% HEPES (Gibco #15630), 1% Pen-Strep (Penicillin-Streptomycin; Gibco #15140) and 5 μg/ml Blasticidin (Gibco #R210-01). Cells were expanded in vented cap cell culture flasks, with 90-95% humidity and 5% CO2.
2.5-5% KIR 2.1 Bacmam virus (produced in-house), prepared as described in Section 3.3 of J. A. Fornwald et al., Gene Expression in Mammalian Cells Using BacMam, a Modified Baculovirus System, 1350 Methods in Molecular Biology 95-116 (2016), the entire contents of which are incorporated by reference. The concentration used can be dependent on viral titer of each batch.
5 mM DiSBAC6(3), a voltage sensitive oxonol acceptor (CAS number 169211-44-3; 5-[3-(1,3-dihexylhexahydro-4,6-dioxo-2-thioxo-5-pyrimidinyl)-2-propen-1-ylidene]-1,3-dihexyldihydro-2-thioxo-4,6(1H,5H)-pyrimidinedione), in dry DMSO. The preparation of DiSBAC6(3) is analogous to that of DiSBAC4(3) as described in Voltage Sensing by Fluorescence Resonance Energy Transfer in Single Cells, Gonzalez, J. E. and Tsien, R. Y. (1995) Biophys. J. 69, 1272-1280.
5 mM CC2-DMPE, a commercially available membrane-bound coumarin phospholipid FRET donor (ThermoFisher Scientific catalog number K1017, CAS number 393782-57-5; tetradecanoic acid, 1,1′-[(1R)-1-[8-(6-chloro-7-hydroxy-2-oxo-2H-1-benzopyran-3-yl)-3-hydroxy-3-oxido-8-oxo-2,4-dioxa-7-aza-3-phosphaoct-1-yl]-1,2-ethanediyl] ester) was prepared in dry DMSO. See also, Improved indicators of cell membrane potential that use fluorescence resonance energy transfer, Gonzalez, J. E. and Tsien, R. Y. (1997) Chem. Biol. 4, 269-277.
Voltage Assay Background Suppression Compound (VABSC-1) is prepared in H2O (89-363 mM, range used to maintain solubility)
Human Serum (HS, Millipore #S1P1-01KL, or Sigma SLBR5469V and SLBR5470V as a 50%/50% mixture, for 25% assay final concentration)
• Sodium Chloride 160 mM (9.35 g/L), Potassium Chloride, 4.5 mM (0.335 g/L), Glucose • 10 mM (1.8 g/L), Magnesium Chloride (Anhydrous) 1 mM (0.095 g/L), Calcium • Chloride 2 mM (0.222 g/L), HEPES 10 mM (2.38 g/L) in water.
• Sodium Chloride 96 mM (5.61 g/L), Potassium Chloride 4.5 mM (0.335 g/L), • Tetramethylammonium (TMA)-Cl 64 mM (7.01 g/L), Glucose 10 mM (1.8 g/L), • Magnesium Chloride (Anhydrous) 1 mM (0.095 g/L), Calcium Chloride 2 mM (0.222 • g/L) HEPES 10 mM (2.38 g/L) in water. […]

Sequence of human NaV 1.8 (Q9Y5Y9 126-1722 limits assumed): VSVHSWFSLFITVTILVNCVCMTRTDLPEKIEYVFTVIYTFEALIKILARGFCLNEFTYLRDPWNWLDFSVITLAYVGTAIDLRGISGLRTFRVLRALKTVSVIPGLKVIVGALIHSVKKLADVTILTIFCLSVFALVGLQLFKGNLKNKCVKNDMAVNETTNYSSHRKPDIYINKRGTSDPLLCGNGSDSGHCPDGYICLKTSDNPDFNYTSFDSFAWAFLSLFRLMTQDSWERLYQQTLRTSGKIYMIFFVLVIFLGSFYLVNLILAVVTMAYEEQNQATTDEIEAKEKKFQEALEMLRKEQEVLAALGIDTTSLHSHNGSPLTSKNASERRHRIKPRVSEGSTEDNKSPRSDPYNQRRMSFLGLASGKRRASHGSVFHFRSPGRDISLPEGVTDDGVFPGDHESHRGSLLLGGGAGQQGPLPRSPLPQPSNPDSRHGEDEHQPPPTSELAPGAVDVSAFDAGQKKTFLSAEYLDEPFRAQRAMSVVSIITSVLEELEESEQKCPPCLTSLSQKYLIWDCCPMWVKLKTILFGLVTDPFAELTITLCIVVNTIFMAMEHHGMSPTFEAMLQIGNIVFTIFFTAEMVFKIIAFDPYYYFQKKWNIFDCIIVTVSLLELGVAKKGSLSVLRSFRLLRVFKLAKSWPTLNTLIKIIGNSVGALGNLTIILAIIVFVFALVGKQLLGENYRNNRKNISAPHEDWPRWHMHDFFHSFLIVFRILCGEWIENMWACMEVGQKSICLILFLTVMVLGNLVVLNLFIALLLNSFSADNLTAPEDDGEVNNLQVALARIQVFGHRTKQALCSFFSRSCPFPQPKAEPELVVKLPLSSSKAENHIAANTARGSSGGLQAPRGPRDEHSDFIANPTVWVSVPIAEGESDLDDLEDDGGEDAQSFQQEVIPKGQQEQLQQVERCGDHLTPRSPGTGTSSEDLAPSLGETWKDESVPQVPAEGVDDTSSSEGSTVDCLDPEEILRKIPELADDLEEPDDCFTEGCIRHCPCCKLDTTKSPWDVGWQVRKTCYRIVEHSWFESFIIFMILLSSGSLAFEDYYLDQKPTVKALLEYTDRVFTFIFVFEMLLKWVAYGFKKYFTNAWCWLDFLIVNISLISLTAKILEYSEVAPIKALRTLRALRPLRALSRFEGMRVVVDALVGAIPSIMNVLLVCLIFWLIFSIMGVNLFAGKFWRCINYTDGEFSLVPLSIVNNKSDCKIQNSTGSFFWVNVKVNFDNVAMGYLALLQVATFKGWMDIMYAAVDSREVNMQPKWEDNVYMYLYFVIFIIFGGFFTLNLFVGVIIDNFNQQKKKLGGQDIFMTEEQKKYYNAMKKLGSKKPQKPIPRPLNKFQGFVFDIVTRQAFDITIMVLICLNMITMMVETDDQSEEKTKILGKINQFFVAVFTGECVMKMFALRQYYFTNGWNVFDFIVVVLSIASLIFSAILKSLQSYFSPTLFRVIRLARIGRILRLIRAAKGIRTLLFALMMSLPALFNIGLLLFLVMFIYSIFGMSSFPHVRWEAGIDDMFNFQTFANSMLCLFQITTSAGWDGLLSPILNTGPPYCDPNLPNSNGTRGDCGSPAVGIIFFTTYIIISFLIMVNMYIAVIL

Row | SMILES | pIC50
1 | COCCOc1c([C@@H]2[C@@H](C(=O)Nc3cnc(C(O)CO)nc3)O[C@](C)(C(F)(F)F)[C@@H]2C)ccc(F)c1C (single isomer, unassigned) [Compound 13] | ≤ 6.00
2 | COCCOc1c([C@H]2[C@H](C(=O)Nc3cnc(C(O)CO)nc3)O[C@@](C)(C(F)(F)F)[C@H]2C)ccc(F)c1C (single isomer, unassigned) [Compound 17] | 7.00 to 8.00
3 | C[C@H]1[C@@H](c2ccc(F)c(F)c2OCC2CCOC2)[C@H](C(=O)Nc2ccc(CO)nc2)O[C@@]1(C)C(F)(F)F (stereo partly drawn) [Compound 9, (2R,3S,4S,5R)-3-(3,4-difluoro-2-((tetrahydrofuran-3-yl)methoxy)phenyl)-N-(6-(hydroxymethyl)pyridin-3-yl)-4,5-dimethyl-5-(trifluoromethyl)tetrahydrofuran-2-carboxamide] | 7.00 to 8.00
4 | C[C@H]1[C@@H](c2ccc(F)c(F)c2OCCOC(F)F)[C@H](C(=O)Nc2ccc([C@@H](O)CO)nc2)O[C@@]1(C)C(F)(F)F [Compound 12, (2R,3S,4S,5R)-3-(2-(2-(difluoromethoxy)ethoxy)-3,4-difluorophenyl)-N-(6-((R)-1,2-dihydroxyethyl)pyridin-3-yl)-4,5-dimethy1-5-(trifluoromethyl)tetrahydrofuran-2-carboxamide] | 7.00 to 8.00
5 | COCCOc1c([C@H]2[C@@H](C(=O)Nc3cnc(C(O)CO)nc3)O[C@@](C)(C(F)(F)F)[C@H]2C)ccc(F)c1C (single isomer, unassigned) [Compound 16] | ≤ 6.00
6 | COCCOc1c([C@H]2[C@@H](C)[C@@](C)(C(F)(F)F)O[C@H]2C(=O)Nc2cnc(C(O)CO)nc2)ccc(F)c1C (single isomer, unassigned) [Compound 15] | ≤ 6.00
7 | COc1c([C@H]2[C@H](C(=O)Nc3cnc4c(c3)OCC4O)O[C@@](C)(C(F)(F)F)[C@H]2C)ccc(F)c1F (single isomer, unassigned) [Compound 2, rel-(2R*,3S*,4S*,5R*)-3-(3,4-difluoro-2-methoxyphenyl)-N-(3-hydroxy-2,3-dihydrofuro[3,2-b]pyridin-6-yl)-4,5-dimethyl-5-(trifluoromethyl)tetrahydrofuran-2-carboxamide] | 6.00 to 7.00
8 | C[C@H]1[C@@H](c2ccc(F)c(F)c2OCC(=O)N(C)C)[C@H](C(=O)Nc2ccc(CO)nc2)O[C@@]1(C)C(F)(F)F [Compound 7, (2R,3S,4S,5R)-3-(2-(2-(dimethylamino)-2-oxoethoxy)-3,4-difluorophenyl)-N-(6-(hydroxymethyl)pyridin-3-yl)-4,5-dimethyl-5-(trifluoromethyl)tetrahydrofuran-2-carboxamide] | 7.00 to 8.00
9 | COCCOc1c([C@H]2[C@H](C(=O)Nc3ccc(C(O)COC)nc3)O[C@@](C)(C(F)(F)F)[C@H]2C)ccc(F)c1F (single isomer, unassigned) [Compound 21, rel-(2R*,3S*,4S*,5R*)-3-(3,4-difluoro-2-(2-methoxyethoxy)phenyl)-N-(6-(1-hydroxy-2-methoxyethyl)pyridin-3-yl)-4,5-dimethyl-5-(trifluoromethyl)tetrahydrofuran-2-carboxamide] | 7.00 to 8.00
10 | C[C@H]1[C@@H](c2ccc(F)c(F)c2OCC2COC2)[C@H](C(=O)Nc2ccc(CO)nc2)O[C@@]1(C)C(F)(F)F [Compound 24, (2R,3S,4S,5R)-3-(3,4-difluoro-2-(oxetan-3-ylmethoxy)phenyl)-N-(6-(hydroxymethyl)pyridin-3-yl)-4,5-dimethyl-5-(trifluoromethyl)tetrahydrofuran-2-carboxamide] | 7.00 to 8.00
11 | C[C@H]1[C@@H](c2ccc(F)c(F)c2OCCN2C[C@H]3COC[C@H]3C2)[C@H](C(=O)Nc2cnc(CO)nc2)O[C@@]1(C)C(F)(F)F [Compound 26, (2R,3S,4S,5R)-3-(3,4-difluoro-2-(2-((3aR,6aS)-tetrahydro-1H-furo[3,4-c]pyrrol-5(3H)-yl)ethoxy)phenyl)-N-(2-(hydroxymethyl)pyrimidin-5-yl)-4,5-dimethyl-5-(trifluoromethyl)tetrahydrofuran-2-carboxamide] | 6.00 to 7.00
12 | C[C@H]1[C@@H](c2ccc(F)c(F)c2OC2CC3(COC3)C2)[C@H](C(=O)Nc2ccc(CO)nc2)O[C@@]1(C)C(F)(F)F [Compound 8, (2R,3S,4S,5R)-3-(2-((2-oxaspiro[3.3]heptan-6-yl)oxy)-3,4-difluorophenyl)-N-(6-(hydroxymethyl)pyridin-3-yl)-4,5-dimethyl-5-(trifluoromethyl)tetrahydrofuran-2-carboxamide] | 6.00 to 7.00
13 | C[C@H]1[C@@H](c2ccc(F)c(F)c2OCCO)[C@H](C(=O)Nc2ccc(CO)nc2)O[C@@]1(C)C(F)(F)F [Compound 23, (2R,3S,4S,5R)-3-(3,4-difluoro-2-(2-hydroxyethoxy)phenyl)-N-(6-(hydroxymethyl)pyridin-3-yl)-4,5-dimethyl-5-(trifluoromethyl)tetrahydrofuran-2-carboxamide] | 7.00 to 8.00
14 | CO[C@H](C)COc1c([C@H]2[C@H](C(=O)Nc3ccc(CO)nc3)O[C@@](C)(C(F)(F)F)[C@H]2C)ccc(F)c1F [Compound 6, (2R,3S,4S,5R)-3-(3,4-difluoro-2-((R)-2-methoxypropoxy)phenyl)-N-(6-(hydroxymethyl)pyridin-3-yl)-4,5-dimethyl-5-(trifluoromethyl)tetrahydrofuran-2-carboxamide] | 7.00 to 8.00
15 | COCCOc1c([C@H]2[C@H](C(=O)Nc3ccc([C@@H](O)CO)nc3)O[C@@](C)(C(F)(F)F)[C@H]2C)ccc(F)c1F [Compound 10, (2R,3S,4S,5R)-3-(3,4-difluoro-2-(2-methoxyethoxy)phenyl)-N-(6-((R)-1,2-dihydroxyethyl)pyridin-3-yl)-4,5-dimethyl-5-(trifluoromethyl)tetrahydrofuran-2-carboxamide] | > 8.00
16 | C[C@H]1[C@@H](c2ccc(F)c(F)c2OCCN2CCOCC2)[C@H](C(=O)Nc2ccc(CO)nc2)O[C@@]1(C)C(F)(F)F [Compound 25, (2R,3S,4S,5R)-3-(3,4-difluoro-2-(2-morpholinoethoxy)phenyl)-N-(6-(hydroxymethyl)pyridin-3-yl)-4,5-dimethyl-5-(trifluoromethyl)tetrahydrofuran-2-carboxamide] | 7.00 to 8.00
17 | C[C@H]1[C@@H](c2ccc(F)c(F)c2OCCN2CCOCC2)[C@H](C(=O)Nc2ccc([C@@H](O)CO)nc2)O[C@@]1(C)C(F)(F)F [Compound 11, (2R,3S,4S,5R)-3-(3,4-difluoro-2-(2-morpholinoethoxy)phenyl)-N-(6-((R)-1,2-dihydroxyethyl)pyridin-3-yl)-4,5-dimethyl-5-(trifluoromethyl)tetrahydrofuran-2-carboxamide] | 7.00 to 8.00
18 | CO[C@@H](C)COc1c([C@H]2[C@H](C(=O)Nc3ccc(CO)nc3)O[C@@](C)(C(F)(F)F)[C@H]2C)ccc(F)c1F [Compound 5, (2R,3S,4S,5R)-3-(3,4-difluoro-2-((S)-2-methoxypropoxy)phenyl)-N-(6-(hydroxymethyl)pyridin-3-yl)-4,5-dimethyl-5-(trifluoromethyl)tetrahydrofuran-2-carboxamide] | 7.00 to 8.00
